The source of these data is US7960129B2, “Assays and methods for determining STIM2 activity” (The Queen's Medical Center, priority 2007, dated 2011).

Test [1] concerns the target T1, STIM1+CRACM1-expressing HEK293 cells (Homo sapiens, UniProt Q13586+Q96D31).
T1 construct: expressed in transfected cells; host or cells: HEK293
Briefly: Whole-cell patch-clamp of CRAC currents in STIM1+CRACM1 cells. The format is cell-based. As to conditions: 50 μM 2-APB; no IP3, [Ca2+]i buffered to 150 nM. How it is done: Patch-clamp experiments were performed in the tight-seal whole-cell configuration at 21-25° C. High-resolution current recordings were acquired using the EPC-9 (HEKA). […] Currents were filtered at 2.9 kHz and digitized at 100 μs intervals. Capacitive currents were determined and corrected before each voltage ramp. Extracting the current amplitude at −80 mV from individual ramp current records assessed the low-resolution temporal development of currents. […] All chemicals were purchased from Sigma-Aldrich Co.
A general note: Patch clamp records ionic current or voltage across a cell membrane.

The next test deals with CRAC currents. The following applies: cited from earlier work; for doses that inhibit CRAC currents: high doses.
In test [2] the target is T2, STIM2+CRACM1-expressing HEK293 cells (Homo sapiens, UniProt Q9P246).
T2 construct: expressed in transfected cells; host or cells: HEK293
Put plainly: Whole-cell patch-clamp of CRAC currents in STIM2+CRACM1 cells. The format is cell-based. The following applies: for suppression of the secondary phase of CRAC current: added to pipette solution: ATP 3 mM, GTP 0.3 mM, calmodulin 100 μM, [Ca2+]i 150 nM. As for the experimental part:
Patch-clamp experiments were performed in the tight-seal whole-cell configuration at 21-25° C. High-resolution current recordings were acquired using the EPC-9 (HEKA). Voltage ramps of 50 ms duration spanning a range of −100 to +100 mV were delivered from a holding potential of 0 mV at a rate of 0.5 Hz over a period of 100-700 sec. All voltages were corrected for a liquid junction potential of 10 mV (3 mV with Cl^− as main internal anion). Currents were filtered at 2.9 kHz and digitized at 100 μs intervals. Capacitive currents were determined and corrected before each voltage ramp. Extracting the current amplitude at −80 mV from individual ramp current records assessed the low-resolution temporal development of currents. Where applicable, statistical errors of averaged data are given as means±S.E.M. with n determinations. Standard external solutions were as follows (in mM): 120 NaCl, 10 CsCl, 2.8 KCl, 2 MgCl2, 10 CaCl2, 10 TEA-Cl, 10 HEPES, 10 glucose, pH 7.2 with NaOH, 300 mOsm. In some experiments, 2 μM or 50 μM 2-aminoethyldiphenyl borate (2-APB) or 10 μM G418 were added to the standard external solution and applied through wide-tipped puffer pipettes. Standard internal solutions were as follows (in mM): 120 Cs-glutamate, 8 NaCl, 10 Cs-BAPTA, 3 MgCl2, 10 HEPES, 0.02 IP3, pH 7.2 with CsOH, 300 mOsm. As indicated in the figure legends, for some experiments [Ca^2+]i was buffered to 150 nM by 20 mM Cs•BAPTA and 8 mM CaCl2 or 20 mM Cs•EGTA and 8.9 mM CaCl2. For passive-depletion experiments, the internal solution was supplemented with Cs•BAPTA in the absence of IP3 and Ca^2+. In some experiments, Cs-glutamate and Cs•BAPTA were equimolarly replaced by KCl and K•BAPTA. In others, G418, Na•ATP and Na•GTP or calmodulin were added to intracellular solutions as specified in the figure legends. All chemicals were purchased from Sigma-Aldrich Co.

Read-outs that look alike come from different tables or passages of the source. Bounds are passed on as bounds.

T2 sequence (Q9P246 15-746): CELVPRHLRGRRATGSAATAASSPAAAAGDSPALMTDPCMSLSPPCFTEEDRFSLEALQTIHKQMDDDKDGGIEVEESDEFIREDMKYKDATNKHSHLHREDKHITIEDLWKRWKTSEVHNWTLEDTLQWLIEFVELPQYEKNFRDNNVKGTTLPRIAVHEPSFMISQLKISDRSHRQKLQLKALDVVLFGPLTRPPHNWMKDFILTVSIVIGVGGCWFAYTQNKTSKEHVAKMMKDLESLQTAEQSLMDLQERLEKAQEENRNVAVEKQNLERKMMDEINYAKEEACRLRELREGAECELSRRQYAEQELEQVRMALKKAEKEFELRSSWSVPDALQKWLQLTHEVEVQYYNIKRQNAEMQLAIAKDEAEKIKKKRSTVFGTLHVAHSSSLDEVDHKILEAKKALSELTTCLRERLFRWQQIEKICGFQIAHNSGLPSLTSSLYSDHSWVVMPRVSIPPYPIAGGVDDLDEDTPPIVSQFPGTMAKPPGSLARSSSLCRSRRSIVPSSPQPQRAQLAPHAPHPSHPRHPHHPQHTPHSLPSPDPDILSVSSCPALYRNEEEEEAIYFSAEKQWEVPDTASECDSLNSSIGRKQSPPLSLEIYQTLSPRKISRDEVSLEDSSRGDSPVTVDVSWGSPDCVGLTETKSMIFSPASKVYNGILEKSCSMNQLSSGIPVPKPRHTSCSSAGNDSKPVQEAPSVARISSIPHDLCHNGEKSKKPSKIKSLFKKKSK
T1 sequence (Q13586 23-685): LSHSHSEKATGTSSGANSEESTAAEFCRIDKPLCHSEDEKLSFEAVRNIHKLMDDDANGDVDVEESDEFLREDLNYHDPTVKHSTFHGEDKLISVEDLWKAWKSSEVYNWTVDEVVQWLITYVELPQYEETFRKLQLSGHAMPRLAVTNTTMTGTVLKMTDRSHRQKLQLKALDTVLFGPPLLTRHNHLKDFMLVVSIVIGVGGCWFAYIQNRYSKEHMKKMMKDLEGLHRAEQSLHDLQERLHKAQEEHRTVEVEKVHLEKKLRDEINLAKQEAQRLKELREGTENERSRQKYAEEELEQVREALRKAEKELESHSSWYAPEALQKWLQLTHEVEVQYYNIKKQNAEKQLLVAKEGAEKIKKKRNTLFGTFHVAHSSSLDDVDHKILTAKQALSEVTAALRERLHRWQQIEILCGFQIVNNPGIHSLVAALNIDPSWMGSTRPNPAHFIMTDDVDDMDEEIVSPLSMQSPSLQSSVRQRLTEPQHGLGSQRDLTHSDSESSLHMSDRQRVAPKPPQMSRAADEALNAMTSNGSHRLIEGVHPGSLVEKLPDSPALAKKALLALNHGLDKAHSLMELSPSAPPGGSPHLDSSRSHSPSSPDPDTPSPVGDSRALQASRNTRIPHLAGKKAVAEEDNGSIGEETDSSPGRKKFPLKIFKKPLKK
T1 sequence (Q96D31 whole entry): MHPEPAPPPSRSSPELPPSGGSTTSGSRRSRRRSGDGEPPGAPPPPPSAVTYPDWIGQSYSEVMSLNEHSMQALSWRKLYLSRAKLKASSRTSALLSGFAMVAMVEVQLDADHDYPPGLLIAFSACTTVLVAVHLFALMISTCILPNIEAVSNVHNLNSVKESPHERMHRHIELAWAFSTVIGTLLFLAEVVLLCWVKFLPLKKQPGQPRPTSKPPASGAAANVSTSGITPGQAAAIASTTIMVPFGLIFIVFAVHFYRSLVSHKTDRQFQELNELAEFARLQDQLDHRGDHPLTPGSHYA

Regarding `NCCOB(c1ccccc1)c1ccccc1` [2-APB, 2-aminoethoxydiphenyl borate], the “2-APB-induced current without store depletion” value in test [1] was “not observed”. For the same compound, the “doses that inhibit CRAC currents” value is no less than 10 mM in the test with CRAC currents (unit as printed in b55) and no less than 0.01 mM in the test with CRAC currents. Further, the “doses with facilitatory effects on CRAC currents” value with CRAC currents (low doses) was no more than 5 µM. Further, the “CRAC currents activated by 2-APB” value in test [2] (50 μM 2-APB, stores depleted by IP3 or kept full ([Ca2+]i 150 nM), cells grown without G418) is recorded as “large, transient CRAC currents”. Moreover, the “CRACM1 currents induced by external application of 2-APB” value in test [2] (2 mM 2-APB as printed, cells grown in G418, no IP3-induced current) was “large CRACM1 currents”. Further, in test [2] (high-resolution recording at fixed membrane potential), the “activation time of 2-APB-induced current” value is recorded as “within a few seconds”. In addition, in test [2] (regardless of the filling state of stores), the “effect of 2-APB on G418-mediated suppression of CRAC currents” value is listed as “capable of overcoming the G418-mediated suppression”.

Regarding `Nc1ncnc2c1ncn2[C@@H]1O[C@H](COP(=O)(O)OP(=O)(O)OP(=O)(O)O)[C@@H](O)[C@H]1O` [ATP], the “suppression of the secondary phase of CRAC current” value in test [2] is on record as “failed to suppress”.

On to `CN[C@@H]1[C@@H](O)[C@@H](O[C@@H]2[C@@H](O)[C@H](O[C@H]3O[C@H]([C@@H](C)O)[C@@H](O)[C@H](O)[C@H]3N)[C@@H](N)C[C@H]2N)OC[C@]1(C)O` [G418], for which the IC50 (usually the concentration at which inhibition is half-maximal) amounted to 520 nM in test [2] and 500 nM in test [2] (half-maximal inhibitory concentration for IP3-induced CRACM1 currents, cells perfused with G418, both phases of the current).

As to `Nc1nc2c(ncn2[C@@H]2O[C@H](COP(=O)(O)OP(=O)(O)OP(=O)(O)O)[C@@H](O)[C@H]2O)c(=O)[nH]1` [GTP], the “suppression of the secondary phase of CRAC current” value in test [2] is reported as “failed to suppress”.

In the case of calmodulin, the “suppression of the secondary phase of CRAC current” value in test [2] is recorded as “secondary phase was observed”.
